Assay results reported in US11148998B2, “Dimethyl-nonatetraenyl-trimethyl-cyclohexyl compounds and uses thereof” (The Regents of the University of Michigan, priority 2017, dated 2021).

How the values were obtained:
[1] = system: human dermal fibroblasts; experiment: Generation of pro-inflammatory cytokines by fibroblasts (multiplex ELISA); type: cell-based; settings: KBM 1.5 mM calcium, two days, culture fluids
Description: Fibroblasts were grown in KBM supplemented with 1.5 mM calcium (i.e., as in the fibroblast cytotoxicity assay) for two days. Culture fluids obtained at the end of the incubation period were assessed for several pro-inflammatory cytokines using a multiplex (ELISA-type) assay. Values shown are means and ranges based on duplicate samples in a single experiment. The experiment was repeated two times with similar results.
It is believed that the pro-inflammatory cytokines are “drivers” of the retinoid-induced skin irritation response. […] In this experiment, fibroblasts were cultured for two days in KBM supplemented with 1.5 mM calcium (i.e., as in the cytotoxicity assay). Culture fluids were collected after two days of incubation and subjected to a multiplex enzyme-linked immunosorbant assay (ELISA) for the following cytokines: TNF-α, IL-1β, IL-6, IL-8, MCP-1 and CXCL-1.

[2] = system: human epidermal keratinocytes; experiment: Retinoid-induced keratinocyte desquamation (cell-cell detachment, trypsin/EDTA); type: cell-based; settings: two days, KBM 1.5 mM calcium
Description: At the end of the incubation period, the cells were exposed to a combination of trypsin and EDTA and the percentage of cells that detached from one another were assessed over time.
Human epidermal keratinocytes are isolated from the same skin biopsies as fibroblasts and grown in monolayer culture using Keratinocyte Growth Medium (KGM) as described previously (see, e.g., Varani J, et al., J Clin Invest. 1994; Varani J, et al., J. Invest. Dermatol. 94:717-723, 1990; Varani J, et al., J. Invest. Dermatol. 1989; 93:449-454). Growth is at 37° C. in a humidified atmosphere containing 5% CO2 and 95% air. For some studies, experiments use the HaCat line of immortalized human epidermal keratinocytes in place of primary or low-passage cells. Growth for these cells is exactly as with low-passage keratinocytes.
When keratinocytes are grown in monolayer culture, proliferation is optimal under low-calcium (0.05-0.15 mM) conditions. When the calcium concentration is raised to 1.5 mM, the keratinocyte differentiation occurs and proliferation slows. Under such conditions, strong cell-cell connections are made. […] The end result is that cells separate more easily from one another (see, e.g., Varani J, et al., J. Invest. Dermatol. 1989; 93:449-454; Varani J, et al., J Invest. Dermatol. 97:917-921, 1991; Varani J, et al., Am. Path. 138:887-895, 1991). Retinoid efficacy in acne is dependent, in part at least, on reduced epidermal cohesion and ability of acne lesional skin to slough during washing.
As a way to quantify detachment, keratinocytes grown for 2 days in culture medium containing 1.5 mM calcium were washed and exposed to a combination of trypsin and EDTA. Cell detachment from neighboring cells was assessed at timed intervals.

[3] = system: human dermal fibroblasts; experiment: Retinoid-induced fibroblast survival under low-calcium conditions; type: cell-based; settings: for protection of fibroblasts from lysis (percentage of initially present cells still viable): 0.1 to 5 μg/mL
Description: Human dermal fibroblasts are isolated from skin biopsies as described previously and grown in monolayer culture using DMEM supplemented with 10% fetal bovine serum as culture medium (see, e.g., Varani J, et al., J Clin Invest. 1994; 94; Varani J, et al., J. Invest. Dermatol. 94:717-723, 1990). Growth is at 37° C. in a humidified atmosphere containing 5% CO2 and 95% air. For experimental studies, cells are plated at 5×10^4 cells per well in wells of a 24-well culture dish in the same culture medium. One day later, cells are washed and the DMEM culture medium is replaced with Keratinocyte Basal Medium (KBM).
In this assay, low-passage human dermal fibroblasts are grown for three days in Keratinocyte Basal Medium (KBM) at a calcium concentration (0.1 mM) that is too low to support survival. […] How retinoids act to prevent fibroblast lysis is not fully understood, but part of the mechanism involves modulation of calcium transit across the cell membrane in the presence of the active retinoids (see, e.g., Varani J, et al., Am. J. Path. 136:1275-1281, 1990; Varani K, et al., Am J. Pathol. 147:718-729, 1995; Varani J, et al., Amer. J. Pathol. 148: 1307-1312, 1996).

[4] = system: serum pro-inflammatory cytokines; settings: mouse, in vivo
Description: Each of the 4 experimental retinoids was made up in DMSO as 0.1% and 0.3% solutions. The material was applied to the treatment area (2 cm^2 area) on a dot marked area on the inter-scapular back) once daily for 7 consecutive days or for 21 consecutive days. The test agent was gently rubbed into the test site after application. As a control, Tretinoin-0.1% was used. […] This is a commonly-prescribed anti-acne medicine. A set amount of the test article, DMSO, DMSO plus test drug, or Tretinoin cream (35 mg) was delivered using a Gilson MICROMAN fully adjustable positive placement pipette.
Serum was obtained from all mice at the end of the study and evaluated for levels of pro-inflammatory cytokines. For this, the same multiplex ELISA used with human samples was employed except that mouse-recognizing antibodies replaced antibodies used to detect the human counterparts.

SMILES	induction of pro-inflammatory cytokines (TNF-α, IL-1β, IL-6, IL-8, MCP-1, CXCL-1) [1]	induction of pro-inflammatory cytokines (TNF-α, IL-1β, IL-6, IL-8, MCP-1, CXCL-1) ([1]; listed as Compound 2)	ease of cell-cell separation (percentage of cells detached over time) ([2]; 2.5 μg/mL)	protection of fibroblasts from lysis (percentage of initially present cells still viable) ([3]; KBM 0.1 mM calcium, three days)	IL-1β serum level [4]	TNF-α serum level [4]	ease of cell-cell separation (percentage of cells detached over time) ([2]; 1.0 μg/mL)	fall-off in cell numbers ([3]; 5 μg/mL, low-calcium survival assay)	concentration at which protection was optimal ([3]; KBM 0.1 mM calcium, three days)	IL-6 serum level [4]	KC/IL-8 serum level [4]	MCP-1 serum level [4]	serum pro-inflammatory cytokine levels compared to control mice (in words) [4]	induction of pro-inflammatory cytokines (TNF-α, IL-1β, IL-6, IL-8, MCP-1, CXCL-1) ([1]; listed as Compound 1)	protection of fibroblasts from lysis (percentage of initially present cells still viable) ([3]; KBM 0.1 mM calcium, three days, listed as Compound 1)
CC1=C(/C=C/C(C)=C\C=C\C(C)=C\C(=O)N(C)CC(=O)c2ccccc2)C(C)(C)CCC1 [Example 2, (2E,4E 6Z,8E)-N,3,7-trimethyl—N-(2-oxo-2-phenylethyl)-9-(2,6,6-trimethylcyclohex-1-en-1-yl)nona-2,4,6,8-tetraenamide]	no evidence of cytokine induction at the highest concentration	not observed	comparable to ATRA at 1 μg/mL	capable of protecting fibroblasts from lysis under low-calcium conditions	low	low	–	–	–	–	–	–	–	–	–
CC1=C(/C=C/C(C)=C/C=C/C(C)=C/C(=O)O)C(C)(C)CCC1 [ATRA, all-trans retinoic acid, reference compound]	induced a strong up-regulation of several cytokines	–	–	capable of protecting fibroblasts from lysis under low-calcium conditions	low	low	increased the ease of cell-cell separation as compared to control	incipient toxicity	1.0 µg/mL	1.55 ± 0.66 pg/mL	23 ± 4 pg/mL	158 ^± 43 pg/mL	increase in levels of MCP-1, IL-6 and KC/IL-8	–	–
CC1=C(/C=C/C(C)=C\C=C\C(C)=C\C(=O)N(C)CC(=O)C(C)(C)C)C(C)(C)CCC1 [Example 1, (2E,4E 6Z,8E)-N-(3,3-dimethyl-2-oxobutyl)-N,3,7-trimethyl-9-(2,6,6-trimethylcyclohex-1-en-1-yl)nona-2,4,6,8-tetraenamide]	no evidence of cytokine induction at the highest concentration	–	–	capable of protecting fibroblasts from lysis under low-calcium conditions	low	low	more potent than ATRA	–	–	–	–	–	–	not observed	as effective as ATRA
